Measured values as given in US11679099B2, “Use of HIF-2α inhibitors for treating chondrosarcoma, or preventing recurrence and metastasis thereof” (SEOUL NATIONAL UNIVERSITY R&DB FOUNDATION, priority 2020, dated 2023).
“Also recorded” adds a separate entry of the source.

Tests used:
[1] = test system: SW1353 cells; assay: Apoptosis analysis, Annexin-V/PI flow cytometry; assay type: cell-based, human; details: 10 μM TC-S7009 pretreatment 48 h and/or 5 μg/ml cisplatin 24 h
Method: Drug Interaction Studies. For analysis of combination index (CI), SW1353 cells were pretreated with vehicle, 10 μM Nutlin-3a, 10 μM ABT-888, or 10 μM TC-S7009 for 48 h and additionally treated with 0.2, 0.5, 1, 2, or 5 μg/ml cisplatin or left untreated for 72 h. Cell viability was measured by the MTT assay. CI was calculated using the Compusyn software version 1.0, and synergistic effects were determined by the Chou-Talalay method (Chou T C. Drug Combination Studies and Their Synergy Quantification Using the Chou-Talalay Method. Cancer Res. 2010; 70(2):440-446). Drug combination at a non-constant ratio was used to calculate CI. For apoptosis analysis, SW1353 cells were pretreated with vehicle, 10 μM Nutlin-3a, 10 μM ABT-888, or 10 μM TC-S7009 for 48 h and additionally treated with 5 μg/ml cisplatin for 24 h. Subsequently, cells were stained with the Annexin V-FITC Apoptosis Detection Kit (Sigma Aldrich, APOAF) according to manufacturer's protocol. Flow cytometry analysis was performed on a FACSCanto II flow cytometer (BD Biosciences).

[2] = test system: SW1353 tumors; assay: Adjuvant chemotherapy in orthotopic chondrosarcoma xenograft model; assay type: in vivo, athymic nude mice (BALB/c nu/nu); details: mice, i.p., 2 mg/kg cisplatin and/or 20 mg/kg TC-S7009, twice weekly for four weeks
Excerpt: FIG. 5G is a schematic diagram of combination chemotherapy with TC-S7009. Mice were intraperitoneally injected 8 times with DMSO, cisplatin, TC-S7009, or cisplatin plus TC-S7009, twice a week from two weeks following the orthotopic xenograft (n=5).
Mice and experimental systems. Female athymic nude mice (BALB/c nu/nu, 5 weeks old) were purchased from Daehan-Biolink Co. and housed in individually ventilated cages. Mice were maintained under pathogen-free conditions. Food and water were provided after their sterilization. For in vivo experiments, at least five mice per experimental condition were used. Animals were randomly allocated to each experimental group, and the treatment allocation was blinded. In the orthotopic injection model, SW1353 cells were trypsinized and resuspended in PBS after centrifugation. The number of cells was adjusted to 1×10^6 cells per 25 μl. For SW1353 cells that stably overexpressed eGFP or HIF-2α, cell number was adjusted to 1×10^5 cells per 25 μl. Cells were mixed with 25 μl of Geltrex (Thermo Fisher Scientific, Geltrex™ LDEV-Free Reduced Growth Factor Basement Membrane Matrix). Before the procedure, mice were anesthetized. Skin was incised using a scalpel, and a single 0.35-mm diameter hole was drilled through the cartilage of the upper right tibia with the aid of sterile H-files (MANI, 28 mm #70). Subsequently, 10 μl of cell mixture was slowly injected with a 30-gauge microsyringe needle through the hole. The hole was sealed using surgical wax, and the surgery site was extensively rinsed with sterile PBS to wash out any spilled cell mixture. As the last step of the surgical procedure, the cutaneous wound was sutured. After the chosen experimental periods, mice were sacrificed, and total hindlimbs were dissected. For lung specimens, PBS was instilled through the trachea, and all specimens were processed for histomorphometric and immunohistochemical analysis. For the adjuvant chemotherapy studies, two weeks after the orthotopic injection of chondrosarcoma cells, mice were injected intraperitoneally with or without 2 mg/kg cisplatin in the presence or absence of 20 mg/kg TC-S7009 (Tocris) dissolved in Kolliphor EL (castor oil, 10% v/v, Sigma Aldrich, C5135). Vehicle solution was composed of DMSO, PBS, and Kolliphor EL (10% v/v). Chemotherapy cocktails were administered to mice twice weekly for four weeks.

[3] = molecular target: T1, HIF-2α (Homo sapiens, UniProt Q99814); assay: HRE reporter gene (luciferase) assay; assay type: cell-based; details: SW1353 cells co-transfected with pcDNA3-EPAS1 and HRE reporter; different doses of TC-S7009, 24 h
T1 construct: host or cells: SW1353 cells
Method: (A) SW1353 cells were co-transfected with pcDNA3 or pcDNA3-EPAS1 and the HRE containing reporter plasmid in the absence or presence of different doses of TC-S7009. HRE reporter activity was normalized to Renilla luciferase activity (n=5). […] (Scale bar, 200 μm.) Values indicate the mean±SEM, ***P<0.001, N.S., not significant, ANOVA (A-C) and Student's t test (D).
Luciferase assay. HIF-2α activity was determined by reporter gene assay. SW1353 cells were transfected with 1 μg of a reporter vector containing hypoxia responsive element repeats. The thymidine kinase promoter-Renilla luciferase reporter plasmid (pRL-TK) was used as a control for measuring transfection efficiency. […] Twenty-four hours after transfection, cells were treated with TC-S7009 for an additional 24 h. Luciferase activity was measured using luciferin and normalized by Renilla luciferase activity.

[4] = test system: SW1353 cells; assay: Trypan blue exclusion assay (cell viability); assay type: cell-based, human
Excerpt: (§1) (A) SW1353 cells were co-transfected with pcDNA3 or pcDNA3-EPAS1 and the HRE containing reporter plasmid in the absence or presence of different doses of TC-S7009. HRE reporter activity was normalized to Renilla luciferase activity (n=5). (B) Trypan blue exclusion assay to test the effect of TC-S7009 on cell viability of SW1353 cells (n=3). (C) Colony formation assay of SW1353 cells in the absence or presence of different doses of TC-S7009. The number of colonies counted using the ImageJ software (n=5). (D) Migration assay performed using SW1353 cells treated with DMSO or 10 μM TC-S7009. Representative images are shown (Left), and the relative area of migration (Right) was determined using the Image-Pro Premier software (n=6). (Scale bar, 200 μm.) Values indicate the mean±SEM, ***P<0.001, N.S., not significant, ANOVA (A-C) and Student's t test (D). P values; N.S.=non-significant, ***P<0.001. HRE=hypoxia response element; P=P value.

[5] = test system: SW1353 cells; assay: Transwell invasion assay; assay type: cell-based, human; details: 10 μM TC-S7009 vs DMSO
Method: FIG. 5A is the results of Transwell invasion (n=3) assay using SW1353 cells treated with DMSO or 10 μM TC-S7009. Representative images were shown, the invaded cells were calculated on the random image fields and normalized to the cells treated with DMSO. Scale Bar=200 μm.
Transwell invasion assay. The invasion assay was performed using Transwell (BD Falcon, pore size, 8 μm, PET) in 24-well plates. Filters were coated with 20 μg of Geltrex (Thermo Fisher Scientific) in 20 μl of serum-free DMEM and dried for 4 h in a sterile environment. Prior to the invasion assay, SW1353 and OUMS-27 cells were starved for 12 h in serum-free DMEM. Immediately before seeding the cells, the dried transwells were rehydrated with 25 μl of serum-free DMEM for 1 h at 37° C. Starved cells were trypsinized, centrifuged, and resuspended in serum-free DMEM. Approximately 1×10^5 cells in 200 μl of serum-free DMEM were placed in each transwell and 2 ml of DMEM supplemented with 10% FBS was placed in each 24-well plate. The plates were incubated for 48 h at 37° C., fixed in 4% paraformaldehyde for 2 min, permeabilized in 100% methanol for 20 min, and stained with 0.1% crystal violet in 10% ethanol for 20 min. Cells on the upper side of the transwell were removed with cotton-tipped swabs. […] Image fields were randomly chosen, and invading cells were counted using the ImageJ software (National Institutes of Health).

[6] = test system: SW1353 cells; assay: Gelatin degradation assay; assay type: cell-based, human; details: 10 μM TC-S7009 vs DMSO
Method: Gelatin degradation assay. SW1353 cells were seeded on coverslips coated with Oregon Green 488-conjugated gelatin (Life Technologies) at 4×10^4 cells per well. Briefly, coverslips were treated with 50 μg/ml poly-D-Lysine (Corning) for 20 min followed by 0.5% glutaraldehyde (Junsei Chemical) for 15 min on ice. Treated coverslips were coated at 37° C. with pre-warmed 200 μg/ml Oregon Green 488-conjugated gelatin for 10 min in the dark, treated with 5 mg/ml NaBH4 for 15 min, and extensively washed with 70% ethanol and PBS. Cells were incubated for 18 h after seeding. For imaging gelatin degradation, cells were fixed with 50% methanol (v/v) and 10% acetic acid (v/v) solution for 10 min and stained with DAPI. For each coverslip, three fields were imaged at 20× magnification using a fluorescence microscope (EVOS FL Cell Imaging System, Thermo Fisher Scientific). To quantify gelatin degradation, the area of degradation in each field was measured by color-thresholding, using the ImageJ software.

[7] = test system: SW1353 cells; assay: Sphere formation assay; assay type: cell-based, human; details: 10 μM TC-S7009 vs DMSO
Method: FIG. 5C is the results of sphere formation (n=3) assays using SW1353 cells treated with DMSO or 10 μM TC-S7009 assay using SW1353 cells treated with DMSO or 10 μM TC-S7009. The representative images were shown and the diameter of the spheres were measured. Box-whisker plot were used to present the data. Scale Bar=200 μm.
Sphere formation assay. SW1353 and OUMS-27 cells were suspended in DMEM-F12 medium supplemented with 2% of B27 supplement (Thermo Fisher Scientific), 20 ng/ml EGF (Invitrogen), and 20 ng/ml basic fibroblast growth factor (bFGF; Peprotech). For experiments using SW1353 cells overexpressing eGFP or HIF-2α, cells were suspended in DMEM-F12 medium in the absence of the above supplements. Cells were then seeded in 24-well Ultra-low attachment plates (Corning) at a density of 1×10^4 cells per well. Four days later, fresh medium was added in each well. Seven days later, spheres were analyzed by the sphere diameter and the number of spheres larger than 50 μm (Axio Observer Z1, Zeiss). In relation to the diameter of the spheres, three representative fields per well were imaged, and diameters were measured using the AxioVision software (Zeiss): the three longest diameters per image field for each group were recorded. The distribution of the sphere diameters was plotted using the notched Box-and-Whisker plot originally invented by Tukey. […]

[8] = test system: SW1353 cells; assay: Colony formation assay; assay type: cell-based, human; details: 10 μM or different doses of TC-S7009 vs DMSO
Method: FIG. 5D is the results of colony formation (P<0.001, n=5) assays using SW1353 cells treated with DMSO or 10 μM TC-S7009 assay using SW1353 cells treated with DMSO or 10 μM TC-S7009. The representative images and quantification results were shown.
as §1
Colony formation assay. SW1353 cells were suspended in DMEM supplied with 10% FBS and seeded in 6-well plates; 1×10^3 and 500 cells were seeded in each well for the knockdown and overexpression experiments, respectively. […]

[9] = test system: SW1353 cells; assay: Migration assay; assay type: cell-based, human; details: 10 μM TC-S7009 vs DMSO
Excerpt: as §1
Migration assay. SW1353 and OUMS-27 cells were cultured in a 6-well plate at a density of 5×10^5 cells per well. When cells achieved 90% confluence, a wound was made with a sterile yellow tip. Cells were washed with PBS three times and incubated in fresh media with 1% FBS for 36 h. Every 12 h, randomly selected fields were captured by a digital camera under a microscope.

[10] = test system: HIF-2α; assay: siRNA knockdown of HIF-2α in SW1353 cells; assay type: cell-based, human; details: SW1353 cells transfected with siRNA
Method: Cell culture. Chondrosarcoma cell lines SW1353 and OUMS-27 were purchased from ATCC and JCRB Cell Bank, respectively, maintained in 3% O2 at 37° C., and cultured in DMEM (WelGENE Inc., LM001-05) supplemented with 10% FBS (Gibco, 26140079) and 1% antibiotics. For the selection of stable cell lines, 1×10^3 cells were seeded in 100 mm dishes and incubated for approximately two weeks until colonies became visible, and they were supplied with fresh media every three days. Visible colonies were individually isolated using cloning rings. Single colony-forming cells were trypsinized, seeded into 24-well plates, and gradually expanded to 100 mm dishes. Transfection was performed with METAFECTENE PRO (Biontex, T040) according to the manufacturer's protocol. All siRNAs were purchased from Bioneer. All cell lines were tested and authenticated using short-tandem repeat (STR) profiling by the Korean Cell Line Bank and were free of mycoplasma contamination. None of the cell line stocks used in this study was found in the database of commonly misidentified cell lines listed by ICLAC.
Microarray. SW1353 cells (3×10^5) were transfected with control, HIF1A, or EPAS1 siRNAs. Three biological replicates were used for each group. cDNA was synthesized using the GeneChip WT (Whole Transcript) Amplification kit as described by the manufacturer. […]

T1 sequence (Q99814 whole entry): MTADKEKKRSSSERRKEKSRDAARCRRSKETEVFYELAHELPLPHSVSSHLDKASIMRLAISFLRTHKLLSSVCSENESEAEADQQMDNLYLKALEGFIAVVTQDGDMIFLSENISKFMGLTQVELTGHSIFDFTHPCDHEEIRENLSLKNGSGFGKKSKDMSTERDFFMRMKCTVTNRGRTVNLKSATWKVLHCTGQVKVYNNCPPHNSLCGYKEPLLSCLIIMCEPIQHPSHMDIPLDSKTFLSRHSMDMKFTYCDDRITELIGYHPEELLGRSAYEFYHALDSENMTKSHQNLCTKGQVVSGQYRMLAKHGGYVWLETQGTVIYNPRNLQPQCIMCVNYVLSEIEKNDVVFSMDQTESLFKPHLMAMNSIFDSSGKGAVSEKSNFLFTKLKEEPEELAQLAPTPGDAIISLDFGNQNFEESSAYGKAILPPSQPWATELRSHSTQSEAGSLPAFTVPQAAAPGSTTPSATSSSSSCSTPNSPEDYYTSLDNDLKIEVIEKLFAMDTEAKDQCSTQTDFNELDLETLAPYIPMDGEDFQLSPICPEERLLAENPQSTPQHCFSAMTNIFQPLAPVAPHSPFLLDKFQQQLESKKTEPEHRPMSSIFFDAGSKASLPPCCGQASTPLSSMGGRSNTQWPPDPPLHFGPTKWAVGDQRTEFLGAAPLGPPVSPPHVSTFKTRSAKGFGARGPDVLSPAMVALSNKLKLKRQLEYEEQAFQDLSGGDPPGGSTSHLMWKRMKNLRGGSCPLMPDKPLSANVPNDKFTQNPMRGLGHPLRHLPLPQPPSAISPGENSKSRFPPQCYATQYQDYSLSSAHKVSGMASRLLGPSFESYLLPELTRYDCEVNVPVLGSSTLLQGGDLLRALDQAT

## N.N.[Cl][Pt][Cl] [Cisplatin, cisplatin]
[1]
  apoptotic cells (Annexin-V and PI positive populations): mild increase
[2]
  extraosseous outgrowth of primary tumor: mild-to-moderate reduction
  pulmonary (lung) metastasis: mild-to-moderate reduction

## O=[N+]([O-])c1c(Nc2cc(F)cc(Cl)c2)ccc2nonc12 [TC-S7009, N-(3-Chloro-5-fluorophenyl)-4-nitro-2,1,3-benzoxadiazol-5-amine]
[3]
  transcriptional activity of HIF-2α (HRE reporter activity): effectively abolished; also recorded: effectively blocks
[4]
  cytotoxicity / cell viability: without any apparent cytotoxicity; also recorded: without affecting
[5]
  invasive phenotypes (transwell invasion): effectively blocked
[6]
  matrix-degrading activity (gelatin degradation): effectively blocked
[7]
  sphere formation: effectively blocked
[8]
  clonogenicity (colony formation): effectively blocked
[9]
  migration ability: without affecting
[1]
  apoptotic cells (Annexin-V and PI positive populations): did not noticeably affect cell death
[2]
  extraosseous outgrowth of primary tumor: mild-to-moderate reduction
  pulmonary (lung) metastasis: mild-to-moderate reduction

## EPAS1 siRNA: siRNA for HIF-2α, sense and antisense SEQ ID Nos: 3 and 4 with dTdT overhang (sense ACUACGUCCUGAGUGAGAUDTDT; antisense AUCUCACUCAGGACGUAGUDTDT; dTdT overhangs, chemistry not fully specified)
[10]
  expression of HIF-2α at the cellular level: effectively suppress
